This is an account of results in PMC5292209 (Biochemistry, 2016).

The target in this test is T1, Protein tyrosine phosphatase 1B (PTP1B) (Homo sapiens, UniProt P18031).
T1 sequence (P18031 1-301): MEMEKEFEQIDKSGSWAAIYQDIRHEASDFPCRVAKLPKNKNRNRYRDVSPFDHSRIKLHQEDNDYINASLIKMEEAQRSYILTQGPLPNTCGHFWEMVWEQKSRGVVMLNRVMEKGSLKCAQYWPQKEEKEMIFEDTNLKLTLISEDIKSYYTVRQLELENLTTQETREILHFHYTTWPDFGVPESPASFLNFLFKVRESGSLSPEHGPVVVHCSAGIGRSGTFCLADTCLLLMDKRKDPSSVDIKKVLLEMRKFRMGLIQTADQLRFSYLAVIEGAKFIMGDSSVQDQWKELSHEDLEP

`O=[N+]([O-])c1ccc(OP(=O)(O)O)cc1` [pNPP, p-nitrophenyl phosphate]: the Km turned out to be 2800 ± 100 µM.

The term Km denotes the concentration of substrate that gives half-maximal velocity.
